Test results reported in PubChem BioAssay AID1963434 (Molecular Pharmacology Branch, DTP, NCI, 2024).
Where “and” joins values, the source holds several entries; their conditions need not be identical. Equal entries are not always repeated. Blank lines part the entries; values can stand above or below the compound they belong to.

Tested on: 755483-174-R-J1-PDC complex spheroid growth, percent test/control
Assay: Anticancer human tumor 755483-174-R-J1-PDC patient-derived rhabdomyosarcoma cell line growth inhibition [Asc]
Settings: for viability, T/C: stronger effect = lower value
Outline: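 Complex solid-tumor spheroids incorporating human endothelial and mesenchymal stem cells received single agents or combinations over half-log dilution ranges anchored to clinical Cmax.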

[1] = curve of first compound, second compound 0.01 µM
[2] = curve of first compound, second compound 0.0316 µM
[3] = curve of first compound, second compound 0.1 µM
[4] = curve of first compound, second compound 0.316 µM
[5] = curve of first compound, second compound 1 µM
[6] = second compound 0.01 µM, first compound 0.0316 µM
[7] = second compound 0.01 µM, first compound 0.1 µM
[8] = second compound 0.01 µM, first compound 0.316 µM
[9] = second compound 0.01 µM, first compound 1 µM
[10] = second compound 0.01 µM, first compound 3.16 µM
[11] = second compound 0.01 µM, first compound 10 µM
[12] = second compound 0.0316 µM, first compound 0.0316 µM
[13] = second compound 0.0316 µM, first compound 0.1 µM
[14] = second compound 0.0316 µM, first compound 0.316 µM
[15] = second compound 0.0316 µM, first compound 1 µM
[16] = second compound 0.0316 µM, first compound 3.16 µM
[17] = second compound 0.0316 µM, first compound 10 µM
[18] = second compound 0.1 µM, first compound 0.0316 µM
[19] = second compound 0.1 µM, first compound 0.1 µM
[20] = second compound 0.1 µM, first compound 0.316 µM
[21] = second compound 0.1 µM, first compound 1 µM
[22] = second compound 0.1 µM, first compound 3.16 µM
[23] = second compound 0.1 µM, first compound 10 µM
[24] = second compound 0.316 µM, first compound 0.0316 µM
[25] = second compound 0.316 µM, first compound 0.1 µM
[26] = second compound 0.316 µM, first compound 0.316 µM
[27] = second compound 0.316 µM, first compound 1 µM
[28] = second compound 0.316 µM, first compound 3.16 µM
[29] = second compound 0.316 µM, first compound 10 µM
[30] = second compound 1 µM, first compound 0.0316 µM
[31] = second compound 1 µM, first compound 0.1 µM
[32] = second compound 1 µM, first compound 0.316 µM
[33] = second compound 1 µM, first compound 1 µM
[34] = second compound 1 µM, first compound 3.16 µM
[35] = second compound 1 µM, first compound 10 µM
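Also: spheroids exposed to compounds for seven days before readout.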

SMILES: NC(=O)C(=Cn1cnc(-c2cc(C(F)(F)F)cc(C(F)(F)F)c2)n1)c1cncnc1 + CCN1C(C(=O)NC23CCC(C(=O)O)(CC2)CC3)C(c2cccc(Cl)c2F)C2(C(=O)Nc3cc(Cl)ccc32)C12CCCCC2
IC50 (curve of first compound, second compound 0.03 µM): 4.97 nM
IC50 (curve of first compound, second compound 0.0949 µM): 3.99 nM
IC50 (curve of first compound, second compound 0.3 µM): 6.47 nM
IC50 (curve of first compound, second compound 0.949 µM): 5.41 nM
IC50 (curve of first compound, second compound 3 µM): 3.15 nM
viability, T/C (second compound 0.03 µM, first compound 0.000949 µM): 92%
viability, T/C (second compound 0.03 µM, first compound 0.003 µM): 71.4%
viability, T/C (second compound 0.03 µM, first compound 0.00949 µM): 22.4%
viability, T/C (second compound 0.03 µM, first compound 0.03 µM): 12.8%
viability, T/C (second compound 0.03 µM, first compound 0.0949 µM): 7.75%
viability, T/C (second compound 0.03 µM, first compound 0.3 µM): 7.18%
viability, T/C (second compound 0.0949 µM, first compound 0.000949 µM): 84%
viability, T/C (second compound 0.0949 µM, first compound 0.003 µM): 56%
viability, T/C (second compound 0.0949 µM, first compound 0.00949 µM): 31.7%
viability, T/C (second compound 0.0949 µM, first compound 0.03 µM): 14.7%
viability, T/C (second compound 0.0949 µM, first compound 0.0949 µM): 8.83%
viability, T/C (second compound 0.0949 µM, first compound 0.3 µM): 5.38%
viability, T/C (second compound 0.3 µM, first compound 0.000949 µM): 74.2%
viability, T/C (second compound 0.3 µM, first compound 0.003 µM): 75.5%
viability, T/C (second compound 0.3 µM, first compound 0.00949 µM): 37.6%
viability, T/C (second compound 0.3 µM, first compound 0.03 µM): 13.3%
viability, T/C (second compound 0.3 µM, first compound 0.0949 µM): 7.32%
viability, T/C (second compound 0.3 µM, first compound 0.3 µM): 4.64%
viability, T/C (second compound 0.949 µM, first compound 0.000949 µM): 83.9%
viability, T/C (second compound 0.949 µM, first compound 0.003 µM): 66.7%
viability, T/C (second compound 0.949 µM, first compound 0.00949 µM): 34.4%
viability, T/C (second compound 0.949 µM, first compound 0.03 µM): 11.9%
viability, T/C (second compound 0.949 µM, first compound 0.0949 µM): 8.43%
viability, T/C (second compound 0.949 µM, first compound 0.3 µM): 5.55%
viability, T/C (second compound 3 µM, first compound 0.000949 µM): 72.8%
viability, T/C (second compound 3 µM, first compound 0.003 µM): 49.2%
viability, T/C (second compound 3 µM, first compound 0.00949 µM): 32.9%
viability, T/C (second compound 3 µM, first compound 0.03 µM): 16%
viability, T/C (second compound 3 µM, first compound 0.0949 µM): 5.81%
viability, T/C (second compound 3 µM, first compound 0.3 µM): 6.67%

SMILES: O=C(c1cc(Cc2n[nH]c(=O)c3ccccc23)ccc1F)N1CCN(C(=O)C2CC2)CC1 + CNC(C)C(=O)NC1CN(S(=O)(=O)c2cccc(S(=O)(=O)N3CCC4CCC(C(=O)NC(c5ccccc5)c5ccccc5)N4C(=O)C(NC(=O)C(C)NC)C3)c2)CCC2CCC(C(=O)NC(c3ccccc3)c3ccccc3)N2C1=O
IC50 [1]: < 31.6 nM
IC50 [2]: < 31.6 nM
IC50 [3]: < 31.6 nM
IC50 [4]: < 31.6 nM
IC50 [5]: < 31.6 nM
viability, T/C [6]: 41.7%
viability, T/C [7]: 41.1%
viability, T/C [8]: 34.5%
viability, T/C [9]: 27.5%
viability, T/C [10]: 24.1%
viability, T/C [11]: 12%
viability, T/C [12]: 35.3%
viability, T/C [13]: 34.3%
viability, T/C [14]: 24.3%
viability, T/C [15]: 21.3%
viability, T/C [16]: 17.9%
viability, T/C [17]: 9.95%
viability, T/C [18]: 27.2%
viability, T/C [19]: 40.2%
viability, T/C [20]: 28.5%
viability, T/C [21]: 23.6%
viability, T/C [22]: 15.5%
viability, T/C [23]: 7.57%
viability, T/C [24]: 29.5%
viability, T/C [25]: 40.1%
viability, T/C [26]: 23.3%
viability, T/C [27]: 15.7%
viability, T/C [28]: 8.99%
viability, T/C [29]: 3.81%
viability, T/C [30]: 16.7%
viability, T/C [31]: 17.2%
viability, T/C [32]: 6.88%
viability, T/C [33]: 6.73%
viability, T/C [34]: 8.78%
viability, T/C [35]: 3.7%

SMILES: C#Cc1c(F)ccc2cc(O)cc(-c3ncc4c(N5CC6CCC(C5)N6)nc(OCC56CCCN5CC(F)C6)nc4c3F)c12 (stereo unspecified) + CNC(C)C(=O)NC1CN(S(=O)(=O)c2cccc(S(=O)(=O)N3CCC4CCC(C(=O)NC(c5ccccc5)c5ccccc5)N4C(=O)C(NC(=O)C(C)NC)C3)c2)CCC2CCC(C(=O)NC(c3ccccc3)c3ccccc3)N2C1=O
IC50 [1]: < 31.6 nM
IC50 [2]: < 31.6 nM
IC50 [3]: < 31.6 nM
IC50 [4]: < 31.6 nM
IC50 [5]: < 31.6 nM
viability, T/C [6]: 46.4%
viability, T/C [7]: 44.1%
viability, T/C [8]: 55.5%
viability, T/C [9]: 54.6%
viability, T/C [10]: 36.6%
viability, T/C [11]: 2.18%
viability, T/C [12]: 33.2%
viability, T/C [13]: 36%
viability, T/C [14]: 38.7%
viability, T/C [15]: 48.3%
viability, T/C [16]: 36.4%
viability, T/C [17]: 2.06%
viability, T/C [18]: 35.9%
viability, T/C [19]: 42.6%
viability, T/C [20]: 54%
viability, T/C [21]: 28.7%
viability, T/C [22]: 24.8%
viability, T/C [23]: 1.01%
viability, T/C [24]: 32.1%
viability, T/C [25]: 33.9%
viability, T/C [26]: 30.9%
viability, T/C [27]: 34.9%
viability, T/C [28]: 13.9%
viability, T/C [29]: 0.34%
viability, T/C [30]: 17.1%
viability, T/C [31]: 31.2%
viability, T/C [32]: 31.7%
viability, T/C [33]: 22.8%
viability, T/C [34]: 10.5%
viability, T/C [35]: 0.34%

SMILES: COc1c(OCCCN2CCOCC2)ccc2c3n(c(=NC(=O)c4cnc(N)nc4)nc12)CCN3
viability, T/C (compound 0.00316 µM): 81.5% and 75.7% and 125%
viability, T/C (compound 0.01 µM): 68.4% and 71.7% and 105%
viability, T/C (compound 0.0316 µM): 48.4% and 58.9% and 88.5%
viability, T/C (compound 0.1 µM): 32.9% and 32.1% and 51.3%
viability, T/C (compound 0.316 µM): 11.3% and 12% and 19.7%
viability, T/C (compound 1 µM): 5.83% and 6.96% and 8.42%
IC50 (curve of compound): 31.3 nM and 46.2 nM and 104 nM

The next lines start with results.

IC50 (curve of compound): > 10000 nM
SMILES: C=CC(=O)N1CCN(c2nc(=O)n(-c3c(C)ccnc3C(C)C)c3nc(-c4c(O)cccc4F)c(F)cc23)C(C)C1 (stereo unspecified)
viability, T/C (compound 0.0316 µM): 99.7% and 81.3% and 102%
viability, T/C (compound 0.1 µM): 98.4% and 72.6% and 109%
viability, T/C (compound 0.316 µM): 115% and 63% and 100%
viability, T/C (compound 1 µM): 94.8% and 72.7% and 121%
viability, T/C (compound 3.16 µM): 117% and 78.5% and 88.8%
viability, T/C (compound 10 µM): 74.8% and 69.6% and 85.6%

IC50 (curve of compound): > 1000 nM
SMILES: CCN1CCN(Cc2ccc(Nc3ncc(F)c(-c4cc(F)c5nc(C)n(C(C)C)c5c4)n3)nc2)CC1
viability, T/C (compound 0.00316 µM): 112% and 99% and 77.5%
viability, T/C (compound 0.01 µM): 85.6% and 83.7% and 100%
viability, T/C (compound 0.0316 µM): 119% and 93.6% and 74.1%
viability, T/C (compound 0.1 µM): 120% and 83.7% and 118%
viability, T/C (compound 0.316 µM): 115% and 99.3% and 99.2%
viability, T/C (compound 1 µM): 113% and 132% and 99%
